# Test system: yeast genes (level of expressed mRNA)
# Assay: DNA chip analysis of expressed mRNA of yeast genes after 2 h culture with a toxic chemical substance
# Format: cell-based, Saccharomyces cerevisiae S288C
# Method: Yeast (Saccharomyces cerevtisiae S288C (α SUC2mal mel gap2 CUP1)) were cultured at 25° C. on YPD medium (yeast extract 1%, polypepton 2%, glucose 2%). One of toxic chemical substances was added to the cell at logarithmic growth phase, and the cell was further cultured for two hours. Cell was cultured without any chemical substance in the same condition, and was used as control. Concentrations of the chemical substances were defined to inhibit the growth of the yeast but not lead to death.
# After the completion of cultivation, the culture was centrifuged to collect the cells. To the cells, sodium acetate buffer (50 mM sodium acetate, 10 mM EDTA, 1% SDS) was added, and the mixture was shaken at 65° C. for five minutes, followed by returning to room temperature, and obtaining the supernatant, which procedure was repeated two times. To the supernatant, ½ amount of a solution of phenol/chloroform was added, and the mixture was centrifuged to give a supernatant, which was added with an equal amount of chloroform, and the mixture was centrifuged to give a supernatant. To the supernatant, an equal amount of isopropanol containing 0.3 M sodium acetate was added, and the mixture was allowed to stand at room temperature for 30 minutes, after which the mixture was centrifuged to give a sediment of the whole RNAs. Seventy % ethanol was added to the sediment, and the mixture was again centrifuged to give a sediment, which was then dried and dissolved in water. mRNA was isolated from the whole RNAs as followings. In view of the fact that a poly A chain is attached to the 3′ terminus of mRNA, a polynucleotide having a poly T structure which was immobilized on the surface of latex beads was used to trap the mRNA, and then the mRNA was washed and eluted with spine column (Oligotex-dT30<Super>mRNA Purification Kit, Takara). Reverse transcription of the mRNA was conducted with a reverse transcriptase (Super Script II Reverse Transcriptase; catalogue No. 18064-014, GibcoBRL) using fluorescence-labeled nucleotides to give cDNAs that were introduced with Cy3-dUTP or Cy5-dUTP during the reverse transcription.
# The labeled cDNAs were dissolved in TE buffer (10 mM Tris-HCl/1 mM EDTA, pH8.0), and the solution was dropped on the DNA chip containing the whole genes of yeast (DNA Chip Research Inc. Japan) so that the cDNAs were hybridized on the DNA chip at 65° C. for over 12 hours. The fluoresces intensity of the DNA chip was read with a scanner, and the ratio relative to the fluorescence intensity resulting from the absence of chemical substance was estimated as the following, which is shown in Tables 1 to 9: [formula]
# In the Tables, “Intensity” indicated in the rightmost column is a value of the level of expressed mRNA of each gene in control cells as divided by the average level of the expressions of the whole genes.
structure (smiles),measurement,setting,value
"Oc1cc(Cl)c(Cl)cc1Cl [(6), 2,4,5-trichlorophenol]",The level of expressed mRNA in the presence of chemical substance/The level of expressed mRNA in the absence of chemical substance,yeast gene YAR010C,2.3
same,The level of expressed mRNA in the presence of chemical substance/The level of expressed mRNA in the absence of chemical substance,yeast gene YBL005W-A,1.2
same,The level of expressed mRNA in the presence of chemical substance/The level of expressed mRNA in the absence of chemical substance,yeast gene YBL041W,1.7
same,The level of expressed mRNA in the presence of chemical substance/The level of expressed mRNA in the absence of chemical substance,yeast gene YBL043W,26.9
same,The level of expressed mRNA in the presence of chemical substance/The level of expressed mRNA in the absence of chemical substance,yeast gene YBL078C,2.4
same,The level of expressed mRNA in the presence of chemical substance/The level of expressed mRNA in the absence of chemical substance,yeast gene YBR214W,0.8
same,The level of expressed mRNA in the presence of chemical substance/The level of expressed mRNA in the absence of chemical substance,yeast gene YCL020W,1.0
same,The level of expressed mRNA in the presence of chemical substance/The level of expressed mRNA in the absence of chemical substance,yeast gene YCL027W,1.3
same,The level of expressed mRNA in the presence of chemical substance/The level of expressed mRNA in the absence of chemical substance,yeast gene YCR004C,1.8
same,The level of expressed mRNA in the presence of chemical substance/The level of expressed mRNA in the absence of chemical substance,yeast gene YCR071C,2.5
same,The level of expressed mRNA in the presence of chemical substance/The level of expressed mRNA in the absence of chemical substance,yeast gene YCR088W,2.0
same,The level of expressed mRNA in the presence of chemical substance/The level of expressed mRNA in the absence of chemical substance,yeast gene YDL008W,2.7
same,The level of expressed mRNA in the presence of chemical substance/The level of expressed mRNA in the absence of chemical substance,yeast gene YDL238C,2.1
same,The level of expressed mRNA in the presence of chemical substance/The level of expressed mRNA in the absence of chemical substance,yeast gene YDR055W,3.9
same,The level of expressed mRNA in the presence of chemical substance/The level of expressed mRNA in the absence of chemical substance,yeast gene YDR084C,2.1
same,The level of expressed mRNA in the presence of chemical substance/The level of expressed mRNA in the absence of chemical substance,yeast gene YDR085C,2.1
same,The level of expressed mRNA in the presence of chemical substance/The level of expressed mRNA in the absence of chemical substance,yeast gene YDR104C,1.7
same,The level of expressed mRNA in the presence of chemical substance/The level of expressed mRNA in the absence of chemical substance,yeast gene YDR115W,2.3
same,The level of expressed mRNA in the presence of chemical substance/The level of expressed mRNA in the absence of chemical substance,yeast gene YDR259C,0.5
same,The level of expressed mRNA in the presence of chemical substance/The level of expressed mRNA in the absence of chemical substance,yeast gene YDR315C,9.4
same,The level of expressed mRNA in the presence of chemical substance/The level of expressed mRNA in the absence of chemical substance,yeast gene YDR358W,2.5
same,The level of expressed mRNA in the presence of chemical substance/The level of expressed mRNA in the absence of chemical substance,yeast gene YDR388W,1.0
same,The level of expressed mRNA in the presence of chemical substance/The level of expressed mRNA in the absence of chemical substance,yeast gene YDR432W,0.6
same,The level of expressed mRNA in the presence of chemical substance/The level of expressed mRNA in the absence of chemical substance,yeast gene YDR481C,0.9
same,The level of expressed mRNA in the presence of chemical substance/The level of expressed mRNA in the absence of chemical substance,yeast gene YDR510W,1.0
same,The level of expressed mRNA in the presence of chemical substance/The level of expressed mRNA in the absence of chemical substance,yeast gene YEL042W,0.5
same,The level of expressed mRNA in the presence of chemical substance/The level of expressed mRNA in the absence of chemical substance,yeast gene YEL066W,2.2
same,The level of expressed mRNA in the presence of chemical substance/The level of expressed mRNA in the absence of chemical substance,yeast gene YER039C,1.6
same,The level of expressed mRNA in the presence of chemical substance/The level of expressed mRNA in the absence of chemical substance,yeast gene YER107C,2.5
same,The level of expressed mRNA in the presence of chemical substance/The level of expressed mRNA in the absence of chemical substance,yeast gene YER130C,2.7
same,The level of expressed mRNA in the presence of chemical substance/The level of expressed mRNA in the absence of chemical substance,yeast gene YFL028C,1.7
same,The level of expressed mRNA in the presence of chemical substance/The level of expressed mRNA in the absence of chemical substance,yeast gene YFL043C,1.8
same,The level of expressed mRNA in the presence of chemical substance/The level of expressed mRNA in the absence of chemical substance,yeast gene YGL158W,0.4
same,The level of expressed mRNA in the presence of chemical substance/The level of expressed mRNA in the absence of chemical substance,yeast gene YGL229C,2.2
same,The level of expressed mRNA in the presence of chemical substance/The level of expressed mRNA in the absence of chemical substance,yeast gene YGR136W,1.1
same,The level of expressed mRNA in the presence of chemical substance/The level of expressed mRNA in the absence of chemical substance,yeast gene YGR189C,0.5
same,The level of expressed mRNA in the presence of chemical substance/The level of expressed mRNA in the absence of chemical substance,yeast gene YGR213C,4.1
same,The level of expressed mRNA in the presence of chemical substance/The level of expressed mRNA in the absence of chemical substance,yeast gene YGR257C,2.1
same,The level of expressed mRNA in the presence of chemical substance/The level of expressed mRNA in the absence of chemical substance,yeast gene YHR004C,2.0
same,The level of expressed mRNA in the presence of chemical substance/The level of expressed mRNA in the absence of chemical substance,yeast gene YHR071W,2.0
same,The level of expressed mRNA in the presence of chemical substance/The level of expressed mRNA in the absence of chemical substance,yeast gene YHR139C,1.9
same,The level of expressed mRNA in the presence of chemical substance/The level of expressed mRNA in the absence of chemical substance,yeast gene YHR142W,1.2
same,The level of expressed mRNA in the presence of chemical substance/The level of expressed mRNA in the absence of chemical substance,yeast gene YIL123W,0.5
same,The level of expressed mRNA in the presence of chemical substance/The level of expressed mRNA in the absence of chemical substance,yeast gene YIL140W,0.5
same,The level of expressed mRNA in the presence of chemical substance/The level of expressed mRNA in the absence of chemical substance,yeast gene YJL073W,2.0
same,The level of expressed mRNA in the presence of chemical substance/The level of expressed mRNA in the absence of chemical substance,yeast gene YJL089W,1.6
same,The level of expressed mRNA in the presence of chemical substance/The level of expressed mRNA in the absence of chemical substance,yeast gene YJL116C,3.4
same,The level of expressed mRNA in the presence of chemical substance/The level of expressed mRNA in the absence of chemical substance,yeast gene YJR004C,1.2
same,The level of expressed mRNA in the presence of chemical substance/The level of expressed mRNA in the absence of chemical substance,yeast gene YJR086W,1.9
same,The level of expressed mRNA in the presence of chemical substance/The level of expressed mRNA in the absence of chemical substance,yeast gene YKL008C,3.8
